Literature values, collected in patent US20220409351A1, “ORAL APPLIANCE FOR DELIVERY OF AN ANTIMICROBIAL COMPOSITION” (Emanate Biomedical, Inc., priority 2019, published 2022).

Key:
oral pathogenic bacteria [1] = settings: at 10 minutes
oral pathogenic bacteria [2] = settings: against oral pathogenic bacteria

[H]/N=C(\N/C(=N/[H])NCCCCCCNC(=N)NC(=N)Nc1ccc(Cl)cc1)Nc1ccc(Cl)cc1 [Chlorhexidine, chlorhexidine]
MBC (oral pathogenic bacteria [1]): 0.5 % w/v
MIC (oral pathogenic bacteria [2]): 0.0125 % w/v
